Test system: subjects with moderate-to-severe plaque psoriasis
Assay: PASI response, Example 2 long-term extension to Week 52
Type: in vivo, human
Settings: for Change from Baseline in PASI Total Score, LSMean: MMRM model; for Subjects achieving 100% Improvement at Week 52 (PASI) / Subjects achieving ≥75% Improvement at Week 52 (PASI 75 Response) / Subjects achieving ≥90% Improvement at Week 52 (PASI): non-responder imputation
From the text: Described below is a multicenter, long-term extension (LTE), double-blind, dose-ranging, parallel group interventional study in participants from Example 1 to evaluate the long-term efficacy and safety of the hydrochloride salt of the compound of Formula (I) for the treatment of moderate-to-severe plaque psoriasis. Patients from Example 1 continued to receive the same dose of the compound of Formula (I) for an additional 36-week treatment period with a 4-week safety follow up period after the last administration of the compound of Formula (I). Patients randomized to placebo in Example 1 received the compound of Formula (I) at a dose of 100 mg QD starting at Week 16 of Example 1 (FIG. 21).
The primary efficacy endpoint is the proportion of participants achieving a PASI 75 response at Week 52, defined as at least a […] reduction from baseline PASI of Example 1. For primary analysis, composite strategy (non-responder imputation) was applied to address intercurrent event #1 (Discontinuation of study intervention due to lack of efficacy or due to an AE of worsening of psoriasis) and […] (initiation of a protocol-prohibited medication or therapy that could improve psoriasis); treatment policy strategy (observed data) was applied to intercurrent event #3 (Discontinuation of study intervention due to other reasons). Participants with missing data after application of ICEs are considered as non-responders.
Since there was no control arm (after week 16), in this primary analysis, only the proportion of participants who achieved a PASI75 response and its […] confidence interval at Week 52 were summarized for each intervention group.

## CC(=O)NCCCC[C@@H]1NC(=O)[C@H](Cc2c[nH]c3c(C)cccc23)NC(=O)[C@H]([C@@H](C)O)NC(=O)[C@H](CC(N)=O)NC(=O)[C@@H](NC(C)=O)C(C)(C)SSC(C)(C)[C@@H](C(=O)N[C@@H](Cc2ccc(OCCN)cc2)C(=O)N[C@@H](Cc2ccc3ccccc3c2)C(=O)NC2(C(=O)N[C@@H](CCC(=O)O)C(=O)N[C@@H](CC(N)=O)C(=O)N[C@@H](Cc3cccnc3)C(=O)N(C)CC(N)=O)CCOCC2)NC1=O [IL-23 receptor antagonist peptide, Ac-[Pen]*-N-T-[W(7-Me)]-[Lys(Ac)]-[Pen]*-Phe[4-(2-aminoethoxy)]-[2-Nal]-[THP]-E-N-[3-Pal]-Sarc-NH2 (*[Pen]-[Pen]* formdisulfidebond)]
25 mg BID, Week 1
  Change from Baseline in PASI Total Score, Mean: −1.20
  Change from Baseline in PASI Total Score, Median: −0.80
  Change from Baseline in PASI Total Score, LSMean: −1.4
25 mg BID, Week 2
  Change from Baseline in PASI Total Score, Mean: −3.65
  Change from Baseline in PASI Total Score, Median: −3.20
  Change from Baseline in PASI Total Score, LSMean: −3.8
25 mg BID, Week 4
  Change from Baseline in PASI Total Score, Mean: −6.26
  Change from Baseline in PASI Total Score, Median: −6.30
  Change from Baseline in PASI Total Score, LSMean: −6.7
25 mg BID, Week 8
  Change from Baseline in PASI Total Score, Mean: −9.72
  Change from Baseline in PASI Total Score, Median: −9.90
  Change from Baseline in PASI Total Score, LSMean: −10.2
25 mg BID, Week 12
  Change from Baseline in PASI Total Score, Mean: −11.46
  Change from Baseline in PASI Total Score, Median: −12.30
  Change from Baseline in PASI Total Score, LSMean: −11.9
25 mg BID, Week 16
  Change from Baseline in PASI Total Score, Mean: −12.73
  Change from Baseline in PASI Total Score, Median: −12.70
  Change from Baseline in PASI Total Score, LSMean: −13.0
25 mg BID, Week 20
  Change from Baseline in PASI Total Score, Mean: −13.50
  Change from Baseline in PASI Total Score, Median: −13.60
  Change from Baseline in PASI Total Score, LSMean: −13.7
25 mg BID, Week 24
  Change from Baseline in PASI Total Score, Mean: −13.64
  Change from Baseline in PASI Total Score, Median: −13.55
  Change from Baseline in PASI Total Score, LSMean: −13.5
25 mg BID, Week 28
  Change from Baseline in PASI Total Score, Mean: −14.33
  Change from Baseline in PASI Total Score, Median: −14.40
  Change from Baseline in PASI Total Score, LSMean: −14.5
25 mg BID, Week 32
  Change from Baseline in PASI Total Score, Mean: −14.36
  Change from Baseline in PASI Total Score, Median: −14.30
  Change from Baseline in PASI Total Score, LSMean: −14.6
25 mg BID, Week 40
  Change from Baseline in PASI Total Score, Mean: −13.58
  Change from Baseline in PASI Total Score, Median: −14.10
  Change from Baseline in PASI Total Score, LSMean: −13.9
25 mg BID, Week 52
  Change from Baseline in PASI Total Score, Mean: −13.24
  Change from Baseline in PASI Total Score, Median: −13.75
  Subjects achieving PASI 75: 24 (28.5%)
  Change from Baseline in PASI Total Score, LSMean: −13.6
  Subjects achieving 100% Improvement at Week 52 (PASI): (17.1%)
  Subjects achieving ≥75% Improvement at Week 52 (PASI 75 Response): 24 (58.5%)
  Subjects achieving ≥90% Improvement at Week 52 (PASI): (36.6%)
25 mg QD, Week 1
  Change from Baseline in PASI Total Score, Mean: −2.25
  Change from Baseline in PASI Total Score, Median: −0.80
  Change from Baseline in PASI Total Score, LSMean: −2.4
25 mg QD, Week 2
  Change from Baseline in PASI Total Score, Mean: −4.50
  Change from Baseline in PASI Total Score, Median: −4.00
  Change from Baseline in PASI Total Score, LSMean: −4.5
25 mg QD, Week 4
  Change from Baseline in PASI Total Score, Mean: −6.50
  Change from Baseline in PASI Total Score, Median: −5.60
  Change from Baseline in PASI Total Score, LSMean: −6.7
25 mg QD, Week 8
  Change from Baseline in PASI Total Score, Mean: −9.39
  Change from Baseline in PASI Total Score, Median: −7.70
  Change from Baseline in PASI Total Score, LSMean: −9.5
25 mg QD, Week 12
  Change from Baseline in PASI Total Score, Mean: −10.71
  Change from Baseline in PASI Total Score, Median: −9.20
  Change from Baseline in PASI Total Score, LSMean: −10.8
25 mg QD, Week 16
  Change from Baseline in PASI Total Score, Mean: −12.76
  Change from Baseline in PASI Total Score, Median: −12.20
  Change from Baseline in PASI Total Score, LSMean: −12.0
25 mg QD, Week 20
  Change from Baseline in PASI Total Score, Mean: −14.01
  Change from Baseline in PASI Total Score, Median: −13.70
  Change from Baseline in PASI Total Score, LSMean: −13.2
25 mg QD, Week 24
  Change from Baseline in PASI Total Score, Mean: −13.56
  Change from Baseline in PASI Total Score, Median: −14.30
  Change from Baseline in PASI Total Score, LSMean: −12.8
25 mg QD, Week 28
  Change from Baseline in PASI Total Score, Mean: −13.35
  Change from Baseline in PASI Total Score, Median: −14.60
  Change from Baseline in PASI Total Score, LSMean: −13.3
25 mg QD, Week 32
  Change from Baseline in PASI Total Score, Mean: −14.06
  Change from Baseline in PASI Total Score, Median: −15.50
  Change from Baseline in PASI Total Score, LSMean: −13.6
25 mg QD, Week 40
  Change from Baseline in PASI Total Score, Mean: −13.70
  Change from Baseline in PASI Total Score, Median: −15.25
  Change from Baseline in PASI Total Score, LSMean: −13.1
25 mg QD, Week 52
  Change from Baseline in PASI Total Score, Mean: −13.55
  Change from Baseline in PASI Total Score, Median: −14.55
  Subjects achieving PASI 75: 21 (48.8%)
  Change from Baseline in PASI Total Score, LSMean: −12.9
  Subjects achieving 100% Improvement at Week 52 (PASI): (14.0%)
  Subjects achieving ≥75% Improvement at Week 52 (PASI 75 Response): 21 (48.8%)
  Subjects achieving ≥90% Improvement at Week 52 (PASI): (27.9%)
50 mg QD, Week 1
  Change from Baseline in PASI Total Score, Mean: −3.10
  Change from Baseline in PASI Total Score, Median: −1.80
  Change from Baseline in PASI Total Score, LSMean: −3.1
50 mg QD, Week 2
  Change from Baseline in PASI Total Score, Mean: −5.74
  Change from Baseline in PASI Total Score, Median: −4.30
  Change from Baseline in PASI Total Score, LSMean: −5.7
50 mg QD, Week 4
  Change from Baseline in PASI Total Score, Mean: −8.25
  Change from Baseline in PASI Total Score, Median: −7.85
  Change from Baseline in PASI Total Score, LSMean: −8.2
50 mg QD, Week 8
  Change from Baseline in PASI Total Score, Mean: −11.41
  Change from Baseline in PASI Total Score, Median: −11.85
  Change from Baseline in PASI Total Score, LSMean: −11.3
50 mg QD, Week 12
  Change from Baseline in PASI Total Score, Mean: −12.96
  Change from Baseline in PASI Total Score, Median: −14.25
  Change from Baseline in PASI Total Score, LSMean: −12.8
50 mg QD, Week 16
  Change from Baseline in PASI Total Score, Mean: −14.56

— patent US20260232767A1, “INTERLEUKIN-23 RECEPTOR ANTAGONIST PEPTIDES FOR USE IN THE TREATMENT OF PSORIASIS” (Janssen Pharmaceutica NV, priority 2023, published 2026)
